Assay results taken from patent US10961163B2, “Compositions and methods useful for enhancing the microbial conversion of nitrate into ammonium” (The Regents of the University of California, priority 2016, dated 2021).

What follows are molecules tested on microbial enrichment cultures (assay: Ammonium production normalized by growth (NH4+/OD ratio) of microbial enrichment cultivated on individual carbon sources). Conditions: not given.
Type: cell-based

With O.O.O=C([O-])CC(O)(CC(=O)[O-])C(=O)[O-].[Na+].[Na+].[Na+] [Trisodium citrate dihydrate] the Ammonium/OD ratio was 1.73.

Same assay, conditions: average of 8 independent cultures amended with varying concentrations of the carbon source; ammonium by colorimetric (Bertholet) assay, growth by OD 600

For O=CC[C@H](O)[C@H](O)CO [2-Deoxy-D-Ribose], the Ammonium/OD ratio was 1.00.

These molecules were tested on microbial enrichment cultures (assay: Inhibitory potency (IC50) of inorganic compounds against growth and ammonium production, microbial enrichment with yeast extract). Conditions: not given.
Type: cell-based

First: O=[N+]([O-])[O-].[Na+] [Sodium nitrate]
Second: [Na+].[Na+].[O]=[Mo](=[O])([O-])[O-] [Sodium molybdate]
The “NH4^+ IC50/growth IC50 ratio” value of the first is lower: 3.4080 for the first, 6.7259 for the second.

Going from N.N.O.O=S(O)O [Ammonium sulfite monohydrate] to Cl.N [Ammonium chloride], the “NH4^+ IC50/growth IC50 ratio” value falls from 2.0739 to 1.0157.

Going from Manganese (II) chloride tetrahydrate to [Cl][Pb][Cl] [Lead(II)chloride], the “NH4^+ IC50/growth IC50 ratio” value rises from 0.0037 to 0.0174.

First: CC(=O)c1ccc(O)cc1 [4-Hydroxyacetophenone]
Second: [O-][Cl+3]([O-])([O-])O [Sodium perchlorate monohydrate]
The “NH4^+ IC50/growth IC50 ratio” value of the first is lower: 1.3700 for the first, 5.2779 for the second.

First: O=S([O-])[O-].[Na+].[Na+] [sodium sulfite]
Second: [Cl-].[Li+] [Lithium chloride]
The “NH4^+ IC50/growth IC50 ratio” value of the first is lower: 2.4699 for the first, 3.4054 for the second.

Going from Nickel (II) chloride hexahydrate to [Cl-].[K+] [Potassium Chloride], the “NH4^+ IC50/growth IC50 ratio” value falls from 53.6273 to 0.4776.

First: [Ce+3].[Cl-].[Cl-].[Cl-] [Cerium(III) chloride]
Second: O=[PH](O)O [Sodium phosphite dibasic pentahydrate]
The “NH4^+ IC50/growth IC50 ratio” value of the first is lower: 0.0189 for the first, 1.3336 for the second.

First: [I-].[Na+] [sodium iodide]
Second: Sodium tungstate dihydrate
The “NH4^+ IC50/growth IC50 ratio” value of the first is lower: 0.2617 for the first, 1.8289 for the second.

First: O.O.O.O.O.O.O.O=[As]([O-])([O-])O.[Na+].[Na+] [Sodium arsenate dibasic heptahydrate]
Second: O.O.O.O.O.O=S([O-])([O-])=S.[Na+].[Na+] [Sodium thiosulfate pentahydrate]
The “NH4^+ IC50/growth IC50 ratio” value of the first is higher: 3.2618 for the first, 0.5741 for the second.

Going from [Na+].[O-][I+3]([O-])([O-])[O-] [Sodium periodate] to Barium chloride dihydrate, the “NH4^+ IC50/growth IC50 ratio” value falls from 7.8824 to 0.1756.

First: Sodium metavanadate
Second: CC(=O)[O-].[Tl+] [Thallium(I) acetate]
The “NH4^+ IC50/growth IC50 ratio” value of the first is higher: 13.0898 for the first, 0.3751 for the second.

Compared with O.O=[Te]([O-])[O-].[K+].[K+] [Potassium tellurite hydrate], O.O.O.O.O.[Cd+2].[Cd+2].[Cl-].[Cl-].[Cl-].[Cl-] [Cadmium chloride hemipentahydrate] is higher in “NH4^+ IC50/growth IC50 ratio” value: 0.1044 for the first, 0.2809 for the second.

Going from CS(=O)(=O)[O-].[Na+] [Sodium methanesulfonate] to O=S(=O)([O-])[O-].[Na+].[Na+] [Sodium sulfate], the “NH4^+ IC50/growth IC50 ratio” value rises from 0.4289 to 1.0000.

Going from [Cl-].[Cl-].[Cl-].[Ga+3] [Gallium(III)chloride] to [Cl-].[Cs+] [Cesium chloride], the “NH4^+ IC50/growth IC50 ratio” value rises from 1.0037 to 30.1708.

First: [Br-].[Na+] [sodium bromide]
Second: [Cl-].[Cl-].[Zn+2] [Zinc chloride]
The “NH4^+ IC50/growth IC50 ratio” value of the first is higher: 0.5766 for the first, 0.1037 for the second.

Going from O.O.O.O.O.O=[Se]([O-])[O-].[Na+].[Na+] [Sodium selenite pentahydrate] to O=[Te](=O)([O-])[O-].[K+].[K+] [potassium tellurate], the “NH4^+ IC50/growth IC50 ratio” value rises from 0.2998 to 1.7673.

Going from Sodium thiophosphate tribasic hydrate to Sodium deoxycholate monohydrate, the “NH4^+ IC50/growth IC50 ratio” value falls from 0.8963 to 0.0027.

First: O=C([O-])[O-].[Na+].[Na+] [Sodium carbonate]
Second: O=[Se](=O)(O)O [Sodium selenate]
The “NH4^+ IC50/growth IC50 ratio” value of the first is lower: 0.5039 for the first, 10.0581 for the second.

Going from [Cl-].[Cl-].[Sr+2] [Strontium chloride] to O=[As][O-].[Na+] [Sodium m-arsenite], the “NH4^+ IC50/growth IC50 ratio” value rises from 3.3568 to 3.9664.

Compared with Calcium chloride dihydrate, Cl.NO [Hydroxylamine hydrochloride] is higher in “NH4^+ IC50/growth IC50 ratio” value: 0.1455 for the first, 0.3854 for the second.

First: O.O=P([O-])(O)O.[Na+] [Sodium phosphate monobasic monohydrate]
Second: [Cl-].[Cl-].[Cl-].[Eu+3] [Europium(III) chloride]
The “NH4^+ IC50/growth IC50 ratio” value of the first is higher: 0.3418 for the first, 0.1036 for the second.

Going from C[C@H](CCC(=O)[O-])[C@H]1CC[C@H]2[C@@H]3[C@H](O)C[C@@H]4C[C@H](O)CC[C@]4(C)[C@H]3C[C@H](O)[C@]12C.O.[Na+] [Sodium cholate hydrate] to [Na+].[O-][Cl+2]([O-])[O-] [Sodium Chlorate], the “NH4^+ IC50/growth IC50 ratio” value falls from 5.9537 to 1.9090.

Going from [Cl-].[Rb+] [rubidium chloride] to O=C([O-])O.[Na+] [Sodium bicarbonate], the “NH4^+ IC50/growth IC50 ratio” value falls from 1.4483 to 0.3242.

Going from O.O.O.O.O.O.[Cl][Cr]([Cl])[Cl] [Chromium(III) Chloride Hexahydrate] to Sodium Chlorite, the “NH4^+ IC50/growth IC50 ratio” value rises from 0.0003 to 1.2683.

Going from O.O.O.O.O.O.[Cl-].[Cl-].[Co+2] [Cobalt chloride hexahydrate] to O=S(=O)([O-])CCBr.[Na+] [Sodium 2-bromoethanesulfonate], the “NH4^+ IC50/growth IC50 ratio” value falls from 22.1846 to 5.3024.

Compared with [Cl-].[Na+] [Sodium Chloride], O=S(=O)([O-])[O-].[Ag+].[Ag+] [silver sulfate] is lower in “NH4^+ IC50/growth IC50 ratio” value: 21.9487 for the first, 1.9192 for the second.

Compared with [F-].[Na+] [sodium fluoride], O=NO [Sodium nitrite] is lower in “NH4^+ IC50/growth IC50 ratio” value: 1.6628 for the first, 0.3023 for the second.

Same assay, conditions: microbial enrichment with complex carbon source (yeast extract), serial dilutions of inorganic compound; higher ratio favors ammonium production

First: O=S(=O)([O-])CCS.[Na+] [Sodium 2-mercaptoethanesulfonate]
Second: O=C(O)CN(CC(=O)O)CC(=O)O [Nitrilotriacetic acid]
The “NH4^+ IC50/growth IC50 ratio” value of the first is higher: 13.0401 for the first, 0.4756 for the second.

Compared with O=C(O)c1cc(O)c(O)c(O)c1 [Gallic Acid], Aluminum chloride hydrate is lower in “NH4^+ IC50/growth IC50 ratio” value: 4.9374 for the first, 0.0961 for the second.

First: [Cl][Fe]([Cl])[Cl] [Ferric chloride]
Second: copper (II) chloride dihydrate
The “NH4^+ IC50/growth IC50 ratio” value of the first is higher: 0.2642 for the first, 0.1069 for the second.

Compared with O=C(O)CC(NCCNC(CC(=O)O)C(=O)O)C(=O)O (stereo not drawn) [Ethylenediamine-N,N′-disuccinic acid], [Cl][Pd][Cl] [Palladium(II) chloride] is lower in “NH4^+ IC50/growth IC50 ratio” value: 44.3418 for the first, 0.4739 for the second.

Compared with COc1cc(CO)ccc1O [Vanillyl Alcohol], CS(C)(=O)=O [dimethyl sulfone] is lower in “NH4^+ IC50/growth IC50 ratio” value: 2.0632 for the first, 2.0187 for the second.

Compared with OCl [Sodium hypochlorite], O=C1c2ccc(S(=O)(=O)O)cc2C(=O)c2cc(S(=O)(=O)O)ccc21 [AQDS, 9,10-Anthraquinone-2,7-disulphonic acid] is higher in “NH4^+ IC50/growth IC50 ratio” value: 0.0048 for the first, 6.4905 for the second.

In the case of O=P([O-])(O)OP(=O)([O-])O.[Na+].[Na+] [Sodium pyrophosphate dibasic], the “NH4^+ IC50/growth IC50 ratio” value is reported as 0.6988.
